Measurements from PubChem BioAssay (NCI).
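How tested: cells in 96-well plates exposed to compound for 48 hours at five concentrations. Abbreviation: GI50, concentration required for 50% inhibition of growth. At the TGI there is no net growth.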

Columns and labels:
Assay in all cases: NCI-60 cell line screen, 48 h
[1] = tested on: A549 NSCLC
[2] = tested on: NCI-H460 lung
[3] = tested on: 786-0 renal
[4] = tested on: NCI-H23 lung
[5] = tested on: NCI/ADR-RES ovarian
[6] = tested on: MALME-3M melanoma
[7] = tested on: OVCAR-8 ovarian
[8] = tested on: MDA-MB-231 breast
[9] = tested on: SK-MEL-5 melanoma
[10] = tested on: SK-MEL-28 melanoma
[11] = tested on: CCRF-CEM leukemia
[12] = tested on: U251 CNS
[13] = tested on: EKVX NSCLC
[14] = tested on: TK-10 renal
[15] = tested on: MCF7 breast
[16] = tested on: UO-31 renal
[17] = tested on: KM12 colon
[18] = tested on: IGROV1 ovarian
[19] = tested on: DU-145 prostate
[20] = tested on: SN12C renal
[21] = tested on: RXF 393 renal
[22] = tested on: HOP-62 NSCLC
[23] = tested on: K-562 leukemia
[24] = tested on: OVCAR-5 ovarian
[25] = tested on: CAKI-1 renal
[26] = tested on: SNB-75 CNS
[27] = tested on: HCC-2998 colon
[28] = tested on: COLO 205 colon
[29] = tested on: ACHN renal
[30] = tested on: NCI-H522 lung
[31] = tested on: SNB-19 CNS
[32] = tested on: SK-MEL-2 melanoma
[33] = tested on: HS 578T breast
[34] = tested on: PC-3 prostate
[35] = tested on: SR leukemia
[36] = tested on: MOLT-4 leukemia
[37] = tested on: BT-549 breast
[38] = tested on: RPMI-8226 leukemia
[39] = tested on: SK-OV-3 ovarian
[40] = tested on: SW-620 colon
[41] = tested on: UACC-257 melanoma
[42] = tested on: SF-295 CNS
[43] = tested on: SF-539 CNS
[44] = tested on: UACC-62 melanoma
[45] = tested on: HCT-15 colon
[46] = tested on: SF-268 CNS
[47] = tested on: HT29 colon
[48] = tested on: LOX IMVI melanoma
[49] = tested on: A498 renal
[50] = tested on: HCT-116 colon
[51] = tested on: MDA-MB-435
[52] = tested on: OVCAR-3 ovarian
[53] = tested on: NCI-H226 lung
[54] = tested on: M14 melanoma
[55] = tested on: HL-60(TB) leukemia
[56] = tested on: OVCAR-4 ovarian
[57] = tested on: HOP-92 NSCLC
[58] = tested on: T-47D breast

Cc1c(C(=O)O)n(-c2ccc(Cl)cc2)c2ncnc(N)c12
GI50 [1]: 17.4 µM
TGI [1]: 65.3 µM
GI50 [2]: 14.5 µM
TGI [2]: 37.8 µM
GI50 [3]: 21.1 µM
TGI [3]: 56.2 µM
GI50 [4]: 16.7 µM
TGI [4]: 37.2 µM
GI50 [5]: 25.1 µM
TGI [5]: > 100 µM
GI50 [6]: 31.5 µM
TGI [6]: 75.7 µM
GI50 [7]: 14 µM
TGI [7]: 59.9 µM
GI50 [8]: 18 µM
TGI [8]: 70.1 µM
GI50 [9]: 16.2 µM
TGI [9]: 29.9 µM
GI50 [10]: 64.8 µM
TGI [10]: > 100 µM
GI50 [11]: 27.8 µM
TGI [11]: 90.5 µM
GI50 [12]: 31.8 µM
TGI [12]: > 100 µM
GI50 [13]: 17.2 µM
TGI [13]: 56.1 µM
GI50 [14]: 21.8 µM
TGI [14]: 70.1 µM
GI50 [15]: > 100 µM
TGI [15]: > 100 µM
GI50 [16]: 10.3 µM
TGI [16]: > 100 µM
GI50 [17]: 29.9 µM
TGI [17]: > 100 µM
GI50 [18]: 14.6 µM
TGI [18]: > 100 µM
GI50 [19]: 24.1 µM
TGI [19]: 75.4 µM
GI50 [20]: 19.5 µM
TGI [20]: 57.1 µM
GI50 [21]: 13.6 µM
TGI [21]: 39.5 µM
GI50 [22]: 20 µM
TGI [22]: 58.6 µM
GI50 [23]: 21.4 µM
TGI [23]: > 100 µM
GI50 [24]: 46.4 µM
TGI [24]: > 100 µM
GI50 [25]: 19.2 µM
TGI [25]: 67.8 µM
GI50 [26]: 62 µM
TGI [26]: > 100 µM
GI50 [27]: 23.6 µM
TGI [27]: 57.1 µM
GI50 [28]: 21.7 µM
TGI [28]: 43.3 µM
GI50 [29]: 22.6 µM
TGI [29]: 96.9 µM
GI50 [30]: 16 µM
TGI [30]: 50.5 µM
GI50 [31]: 36.4 µM
TGI [31]: 97.6 µM
GI50 [32]: 46.9 µM
TGI [32]: > 100 µM
GI50 [33]: 23.1 µM
TGI [33]: 69.6 µM
GI50 [34]: 19.4 µM
TGI [34]: 54.6 µM
GI50 [35]: 16.6 µM
TGI [35]: > 100 µM
GI50 [36]: 31.2 µM
TGI [36]: > 100 µM
GI50 [37]: 21.7 µM
TGI [37]: 58.7 µM
GI50 [38]: 12.4 µM
TGI [38]: 35.8 µM
GI50 [39]: 43.9 µM
TGI [39]: 75.1 µM
GI50 [40]: 32.3 µM
TGI [40]: > 100 µM
GI50 [41]: 36.2 µM
TGI [41]: > 100 µM
GI50 [42]: 28.7 µM
TGI [42]: > 100 µM
GI50 [43]: 22.7 µM
TGI [43]: 48.6 µM
GI50 [44]: 17 µM
TGI [44]: 41.9 µM
GI50 [45]: 24.1 µM
TGI [45]: 96.9 µM
GI50 [46]: 12.2 µM
TGI [46]: 38.9 µM
GI50 [47]: 22.6 µM
TGI [47]: 51 µM
GI50 [48]: 30.1 µM
TGI [48]: > 100 µM
GI50 [49]: 19.4 µM
TGI [49]: 52.2 µM
GI50 [50]: 20.5 µM
TGI [50]: 47.7 µM
GI50 [51]: 33.2 µM
TGI [51]: > 100 µM
GI50 [52]: 17.5 µM
TGI [52]: > 100 µM
GI50 [53]: 14.9 µM
TGI [53]: 50.2 µM
GI50 [54]: 22.6 µM
TGI [54]: 53.6 µM
GI50 [55]: 37.3 µM
TGI [55]: > 100 µM
GI50 [56]: 48.4 µM
TGI [56]: > 100 µM

COC(=O)[C@@H](C[C@H](Cc1ccccc1)NC(=O)c1csc([C@@H](C[C@H](C(C)C)N(C)C(=O)[C@@H](NC(=O)[C@H]2CCCCN2C)C(C)C)OC(C)=O)n1)NC(=O)OCc1ccccc1
GI50 [1]: 0.00186 µM
TGI [1]: > 8.33 µM
GI50 [2]: < 0.000833 µM
TGI [2]: > 8.33 µM
GI50 [3]: 0.00165 µM
TGI [3]: > 8.33 µM
GI50 [4]: 0.00119 µM
TGI [4]: > 8.33 µM
GI50 [5]: 0.0439 µM
TGI [5]: > 1.69 µM
GI50 [6]: < 0.000833 µM
TGI [6]: 2.68 µM
GI50 [7]: < 0.000833 µM
TGI [7]: > 8.33 µM
GI50 [8]: 0.00131 µM
TGI [8]: > 6.73 µM
GI50 [9]: < 0.000833 µM
TGI [9]: 0.0386 µM
GI50 [10]: 0.906 µM
TGI [10]: 2.39 µM
GI50 [11]: < 0.000833 µM
TGI [11]: > 7.92 µM
GI50 [12]: < 0.000833 µM
TGI [12]: > 2.65 µM
GI50 [13]: 0.0175 µM
TGI [13]: > 8.33 µM
GI50 [14]: 0.107 µM
TGI [14]: > 8.33 µM
GI50 [15]: < 0.000833 µM
TGI [15]: > 8.33 µM
GI50 [16]: 0.0113 µM
TGI [16]: > 8.33 µM
GI50 [17]: < 0.000833 µM
TGI [17]: > 8.33 µM
GI50 [18]: < 0.000833 µM
TGI [18]: > 7.68 µM
GI50 [19]: < 0.000833 µM
GI50 [20]: 0.00146 µM
TGI [20]: > 8.33 µM
GI50 [21]: 0.000948 µM
TGI [21]: > 8.33 µM
GI50 [22]: 0.00112 µM
TGI [22]: > 8.33 µM
GI50 [23]: < 0.000833 µM
TGI [23]: > 3.18 µM
GI50 [24]: 0.00538 µM
TGI [24]: > 8.33 µM
GI50 [25]: 0.00166 µM
TGI [25]: > 8.33 µM
GI50 [26]: < 0.000833 µM
TGI [26]: > 8.33 µM
GI50 [27]: < 0.000833 µM
TGI [27]: > 2.89 µM
GI50 [28]: < 0.000833 µM
GI50 [29]: 0.00293 µM
TGI [29]: > 8.33 µM
GI50 [30]: < 0.000833 µM
TGI [30]: 0.04 µM
GI50 [31]: < 0.000833 µM
TGI [31]: > 8.33 µM
GI50 [32]: < 0.000833 µM
TGI [32]: 3.45 µM
GI50 [33]: < 0.000833 µM
TGI [33]: > 3.55 µM
GI50 [34]: < 0.000833 µM
TGI [34]: > 8.33 µM
GI50 [35]: < 0.000833 µM
TGI [35]: > 3.4 µM
GI50 [36]: < 0.000833 µM
TGI [36]: > 8.33 µM
GI50 [37]: 0.00149 µM
TGI [37]: 0.0839 µM
GI50 [38]: < 0.000833 µM
TGI [38]: 2.49 µM
GI50 [39]: 0.00265 µM
TGI [39]: > 8.33 µM
GI50 [40]: < 0.000833 µM
TGI [40]: > 8.33 µM
GI50 [41]: 0.0309 µM
TGI [41]: 2.59 µM
GI50 [42]: 0.00133 µM
TGI [42]: > 8.33 µM
GI50 [43]: < 0.000833 µM
TGI [43]: 0.00385 µM
GI50 [57]: 0.00236 µM
TGI [57]: > 8.33 µM
GI50 [44]: < 0.000833 µM
TGI [44]: > 8.33 µM
GI50 [45]: 0.00454 µM
TGI [45]: > 8.33 µM
GI50 [46]: 0.00137 µM
TGI [46]: > 8.33 µM
GI50 [47]: < 0.000833 µM
TGI [47]: > 8.33 µM
GI50 [48]: < 0.000833 µM
TGI [48]: > 8.33 µM
GI50 [49]: 0.0011 µM
TGI [49]: 0.0104 µM
GI50 [50]: < 0.000833 µM
GI50 [51]: < 0.000833 µM
TGI [51]: < 0.000833 µM
GI50 [52]: < 0.000833 µM
GI50 [53]: 0.00168 µM
TGI [53]: 0.136 µM
GI50 [54]: < 0.000833 µM
TGI [54]: 0.412 µM
GI50 [55]: < 0.000833 µM
TGI [55]: 0.00162 µM
GI50 [56]: 0.00717 µM
TGI [56]: > 8.33 µM

CCCCOC(=O)NC(Nc1ccc(S(N)(=O)=O)cc1)(C(F)(F)F)C(F)(F)F
TGI [2]: > 100 µM
TGI [4]: > 100 µM
TGI [6]: > 100 µM
TGI [8]: > 100 µM
TGI [10]: > 100 µM
TGI [11]: > 100 µM
TGI [12]: > 100 µM
TGI [13]: > 100 µM
TGI [14]: > 100 µM
TGI [15]: > 100 µM
TGI [16]: > 100 µM
TGI [17]: > 100 µM
TGI [19]: > 100 µM
TGI [20]: > 100 µM
TGI [21]: > 100 µM
TGI [22]: > 100 µM
TGI [23]: > 100 µM
TGI [24]: > 100 µM
TGI [26]: > 100 µM
TGI [27]: > 100 µM
TGI [29]: > 100 µM
TGI [30]: > 100 µM
TGI [31]: > 100 µM
TGI [32]: > 100 µM
TGI [33]: > 100 µM
TGI [35]: > 100 µM
TGI [36]: > 100 µM
TGI [37]: > 100 µM
TGI [38]: > 100 µM
TGI [39]: > 100 µM
TGI [41]: > 100 µM
TGI [58]: > 100 µM
TGI [43]: > 100 µM
TGI [44]: > 100 µM
TGI [45]: > 100 µM
TGI [46]: > 100 µM
TGI [47]: > 100 µM
TGI [48]: > 100 µM
TGI [49]: > 100 µM
TGI [50]: > 100 µM
TGI [51]: > 100 µM
TGI [52]: > 100 µM
TGI [53]: > 100 µM
TGI [54]: > 100 µM
TGI [55]: > 100 µM
